Data set [1] deals with NF-κB. The data set can be described thus: Ex vivo NF-κBp65 and IκBα expression in splenocytes, CIA models. Details: species or system mice. To be noted: early and long-standing arthritis. The protocol:
We infer that the mechanism of action of type I polymerized collagen could be given through the regulation of the transcription factor NF-κB and AP-1. In particular, NF-κB regulates the expression of pro-inflammatory enzymes, cytokines, chemokines, immunoreceptors, and cell adhesion molecules, as well as apoptosis. In the light of this knowledge, the expression of NF-κBp65 and its inhibitor IκBα in splenocytes were analyzed ex vivo (FIG. 12).
FIG. 12. Effect of type I polymerized collagen in the early (preventive) and long-standing (late or palliative) arthritis model on ex vivo NF-κB and IκB-α expression in splenocytes. (A) Spleen cells from early arthritis model mice at first sacrifice. (B) Splenocytes obtained immediately after the second sacrifice. (C) Spleen cells from long-standing arthritis model mice at first sacrifice. (D) Splenocytes obtained immediately after the second sacrifice. The intracellular levels of NF-κBp65 and IκBα cells were detected by flow cytometry. The results are representative of 6 mice analyzed in each group. The horizontal dotted line represents the average normal values obtained from mice (n=3) without CIA. Data represent mean±SEM. *p<0.05.

Data set [2] concerns IL-1β. The data set can be described thus: IL-1β in co-culture supernatants (ELISA). Format: cell-based, human. To be noted: RA or OA co-cultures, day 7 of culture. As to the method:
Cartilage and synovium co-cultures were performed from 9 patients with RA and 8 patients with OA who underwent hip or knee replacement (Table 1). Joint tissue was cultured with (a) RPMI (control), (b) 1% type I polymerized collagen, for 7 days. The supernatants and tissues of days 1 and 7 were […] collected. In the culture supernatants the concentration of IL-1β, IL-8, IL-10, IL-12, TNF-α and IFN-γ was quantified by ELISA and the results were normalized with total protein concentration. The expression of IL-1β and TNF-α was evaluated using histochemistry.
FIG. 3. Effect of type I polymerized collagen on IL-1β expression in supernatants of cartilage and synovium co-cultures from patients with rheumatoid arthritis (RA) or osteoarthritis (OA). The data represent the mean±SD of 9 co-cultures of cartilage and synovial tissue from patients with RA and of 8 co-cultures of patients with OA. Each culture was performed in triplicate for each condition. The results were normalized with the total protein concentration of the supernatant, determined by the Folin-Lowry micromethod. AR: left panel. OA: panel on the right. Basal: tissue in basal conditions.
(In general: An ELISA detects its analyte on a solid surface through an enzyme-linked reagent.)

Data set [3] has as its system SARS-CoV2 (Covid-19).
Where [4] appears, read: end of treatment and 7-day follow-up.

Turning to “collagen-polyvinylpyrrolidone [type I polymerized collagen]”, in data set [1], the “percentage of NF-kB+ complexes with its inhibitor IκBα+ in splenocytes” value is recorded as “increased to a statistically significant level”. Further, the “expression of IL-1β vs. the controls in the supernatants” value in data set [2] is “decreased”. In data set [3] (after 7 days), the “fever, changes in heart rate and odynophagia” value is listed as “disappearance”; the “patients in whom cough, myalgia, and loss of taste persisted” value worked out at 40%; the “patients persisting with alterations in respiratory rate, headache, anosmia, and arthralgia” value amounted to 20%; the “patients persisting with dyspnea” value came to 60%. For the same substance, in data set [3] (day 14, 7 days post-treatment), the “patients with mild alterations in heart rate, cough and loss of the sense of taste” value is given as 20%; the the other symptoms result is recorded as “disappeared”. Besides, in data set [3] (setting [4]), the dyspnea and headache entry is listed as “disappeared in all patients”; the “oxygen requirement to maintain saturation >90%” value was “none required oxygen”. Moreover, in data set [3] (human, in vivo), the “acute respiratory failure syndrome or hospitalization” value is on record as “None”, the “complications related to SARS-CoV2 infection or due to the use of collagen-PVP” value is recorded as “No complications” and the death result is on record as “No patient died”. In addition, in data set [3] (mild to moderate disease), the adverse effects entry is reported as “No adverse effects were detected, except for pain at the application site” and the “persistence of pain at the application site” value lay within 5 to 15 min. In data set [3] (patients with Covid-19, intramuscular, all cases), the clinical improvement result is recorded as “In all cases there was a clinical improvement”.

The values are drawn from patent US20230285516A1 (priority 2020, published 2023).
